From US7985766B2, “Combination of anticholineric and β mimetics for the treatment of respiratory diseases” (MEDA Pharma GmbH & Co. KG, priority 2004, dated 2011) come the findings set out here.

The test deals with guinea pigs. As to conditions: for inhibition of acetylcholine-induced bronchoconstriction (bronchodilatory effect): 1 μg/kg, single drug; for inhibition of acetylcholine-induced bronchoconstriction (bronchodilatory effect) / inhibition of the bronchospasm: i.th.; for inhibition of acetylcholine-induced bronchoconstriction, dose dependence: i.th. 1-10 μg/kg, acetylcholine 10 μg/kg i.v., anesthetized male guinea pigs. The procedure:
After cannulating the trachea, animals were respired using a small animal respiratory pump with a constant tidal volume and a rate of 60 breaths/min. The lung resistance was measured by using a rodent lung function recording system (MUMED, London, UK). Compounds were given intravenously (i.v.) via a catheter placed in the right jugular vein. After surgery, the animals were allowed to stabilize. 10 min before acetylcholine (10 μg/kg, i.v.) administration, the guinea pigs were disconnected from the respirator and either vehicle (10 mg/lactose) or different amounts of drugs (blended with lactose) were administered intratracheally (i.th.) using a syringe. The trachea was then reconnected to the respirator and changes in pulmonary mechanics were recorded. Acetylcholine (10 μg/kg) was injected intravenously in every 10 minutes for 60 min.

Molecules are shown by their SMILES. Where two headings read alike, the source gives them in different places.

As for `COc1ccc(CC(C)NCC(O)c2ccc(O)c(NC=O)c2)cc1` (stereo not drawn) [formoterol], the “inhibition of acetylcholine-induced bronchoconstriction (bronchodilatory effect)” value is listed as “did not show any bronchodilatory effects” and the “inhibition of acetylcholine-induced bronchoconstriction, dose dependence” value was “dose-dependently inhibited”.
On to `C[N+]1(C)CC[C@@H](OC(=O)[C@](O)(c2ccccc2)C2CCCC2)C1.[Br-]` [R,R-glycopyrrolate], for which the “inhibition of acetylcholine-induced bronchoconstriction (bronchodilatory effect)” value is “not effective” and the “inhibition of acetylcholine-induced bronchoconstriction, dose dependence” value is recorded as “dose-dependently inhibited”. For the same compound, the “inhibition of the bronchospasm” value (3 μg/kg) is reported as “ca. 40%”. Besides, for the setting “10 μg/kg”, the “inhibition of the bronchospasm” value is “about 80%”.
